In the supplement of paper PMC10307832:

Key:
Assay in all cases: relative viability (nuclei count vs DMSO), 5 days (fraction); higher = more cells survive
NCI-H2023 = test system: NCI-H2023
Summary of the method: (§1)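 Relative viability divides the nuclei count in treated wells by that in vehicle wells. Lung cancer cell lines were seeded in 1536-well plates, dosed by pin tool the next day, and fixed and stained after 5 days in one step with final 0.05% Triton X-100, 1% formaldehyde and 1 ug/ml Hoechst. Dosing was a single drug or a fixed anchor-drug dose plus five library-drug doses (not always all listed) in √10 steps, and values are medians of duplicate plates imaged at 4×.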

HCC-78 = test system: HCC-78
Summary of the method: as §1

ChaGo-K-1 = test system: ChaGo-K-1
Summary of the method: as §1

LOU-NH91 = test system: LOU-NH91
Summary of the method: as §1

NCI-H838 = test system: NCI-H838
Summary of the method: as §1

HCC-366 = test system: HCC-366
Summary of the method: as §1

NCI-H1734 = test system: NCI-H1734
Summary of the method: as §1

HOP-62 = test system: HOP-62
Summary of the method: as §1

NCI-H596 = test system: NCI-H596
Summary of the method: as §1

NCI-H650 = test system: NCI-H650
Summary of the method: as §1

A-427 = test system: A-427
Summary of the method: as §1

COR-L23 = test system: COR-L23
Summary of the method: as §1

NCI-H1650 = test system: NCI-H1650
Summary of the method: as §1

NCI-H1395 = test system: NCI-H1395
Summary of the method: as §1

NCI-H2087 = test system: NCI-H2087
Summary of the method: as §1

EKVX = test system: EKVX
Summary of the method: as §1

NCI-H1915 = test system: NCI-H1915
Summary of the method: as §1

SK-MES-1 = test system: SK-MES-1
Summary of the method: as §1

NCI-H3122 = test system: NCI-H3122
Summary of the method: as §1

NCI-H358 = test system: NCI-H358
Summary of the method: as §1

NCI-H661 = test system: NCI-H661
Summary of the method: as §1

EPLC-272H = test system: EPLC-272H
Summary of the method: as §1

Cc1cnc(-c2cnc(NCCNc3ccc(C#N)cn3)nc2-c2ccc(Cl)cc2Cl)[nH]1 + COc1cc2c(Oc3ccc(NC(=O)C4(C(=O)Nc5ccc(F)cc5)CC4)cc3F)ccnc2cc1OCCCN1CCOCC1 [Foretinib] (partner 0.25 µM)
relative viability (NCI-H2023; first compound 0.08 µM): 0.709 | relative viability (NCI-H2023; first compound 0.8 µM): 0.938 | relative viability (NCI-H2023; first compound 2.53 µM): 1.18 | relative viability (HCC-78; first compound 0.08 µM): 0.471 | relative viability (HCC-78; first compound 0.253 µM): 0.488 | relative viability (HCC-78; first compound 0.8 µM): 0.525 | relative viability (HCC-78; first compound 2.53 µM): 0.568 | relative viability (ChaGo-K-1; first compound 0.08 µM): 0.941 | relative viability (ChaGo-K-1; first compound 0.253 µM): 0.84 | relative viability (ChaGo-K-1; first compound 0.8 µM): 0.945 | relative viability (ChaGo-K-1; first compound 2.53 µM): 0.921 | relative viability (LOU-NH91; first compound 0.08 µM): 0.975 | relative viability (LOU-NH91; first compound 0.253 µM): 0.901 | relative viability (LOU-NH91; first compound 0.8 µM): 0.96 | relative viability (LOU-NH91; first compound 2.53 µM): 0.942 | relative viability (NCI-H838; first compound 0.08 µM): 1.04 | relative viability (NCI-H838; first compound 0.253 µM): 1.02 | relative viability (NCI-H838; first compound 0.8 µM): 1.15 | relative viability (NCI-H838; first compound 2.53 µM): 1.21 | relative viability (HCC-366; first compound 0.08 µM): 1.01 | relative viability (HCC-366; first compound 0.253 µM): 0.964 | relative viability (HCC-366; first compound 0.8 µM): 0.892 | relative viability (HCC-366; first compound 2.53 µM): 0.922 | relative viability (NCI-H1734; first compound 0.08 µM): 0.926 | relative viability (NCI-H1734; first compound 0.253 µM): 0.762 | relative viability (NCI-H1734; first compound 0.8 µM): 0.834 | relative viability (NCI-H1734; first compound 2.53 µM): 0.83 | relative viability (HOP-62; first compound 0.08 µM): 1.05 | relative viability (HOP-62; first compound 0.253 µM): 1.02 | relative viability (HOP-62; first compound 0.8 µM): 1.12 | relative viability (HOP-62; first compound 2.53 µM): 0.947 | relative viability (NCI-H596; first compound 0.08 µM): 0.929 | relative viability (NCI-H596; first compound 0.253 µM): 0.776 | relative viability (NCI-H596; first compound 0.8 µM): 0.872 | relative viability (NCI-H596; first compound 2.53 µM): 0.827 | relative viability (NCI-H650; first compound 0.08 µM): 1.07 | relative viability (NCI-H650; first compound 0.253 µM): 0.994 | relative viability (NCI-H650; first compound 0.8 µM): 1.09 | relative viability (NCI-H650; first compound 2.53 µM): 1.03 | relative viability (A-427; first compound 0.08 µM): 1.13 | relative viability (A-427; first compound 0.253 µM): 1.01 | relative viability (A-427; first compound 0.8 µM): 0.861 | relative viability (A-427; first compound 2.53 µM): 1.07 | relative viability (COR-L23; first compound 0.08 µM): 0.853 | relative viability (COR-L23; first compound 0.253 µM): 0.877 | relative viability (COR-L23; first compound 0.8 µM): 1.08 | relative viability (COR-L23; first compound 2.53 µM): 0.951 | relative viability (NCI-H1650; first compound 0.08 µM): 1.37 | relative viability (NCI-H1650; first compound 0.253 µM): 1.22 | relative viability (NCI-H1650; first compound 0.8 µM): 1.25 | relative viability (NCI-H1650; first compound 2.53 µM): 1.01 | relative viability (NCI-H1395; first compound 0.08 µM): 1.03 | relative viability (NCI-H1395; first compound 0.253 µM): 0.953 | relative viability (NCI-H1395; first compound 0.8 µM): 1.02 | relative viability (NCI-H1395; first compound 2.53 µM): 0.956 | relative viability (NCI-H2087; first compound 0.08 µM): 1.31 | relative viability (NCI-H2087; first compound 0.253 µM): 1.06 | relative viability (NCI-H2087; first compound 0.8 µM): 1.14 | relative viability (NCI-H2087; first compound 2.53 µM): 1.14 | relative viability (EKVX; first compound 0.08 µM): 0.588 | relative viability (EKVX; first compound 0.253 µM): 0.555 | relative viability (EKVX; first compound 0.8 µM): 0.626 | relative viability (EKVX; first compound 2.53 µM): 0.727 | relative viability (NCI-H1915; first compound 0.08 µM): 1.11 | relative viability (NCI-H1915; first compound 0.253 µM): 0.844 | relative viability (NCI-H1915; first compound 0.8 µM): 1.1 | relative viability (NCI-H1915; first compound 2.53 µM): 1.07 | relative viability (SK-MES-1; first compound 0.08 µM): 1.09 | relative viability (SK-MES-1; first compound 0.253 µM): 0.909 | relative viability (SK-MES-1; first compound 0.8 µM): 0.942 | relative viability (SK-MES-1; first compound 2.53 µM): 1.02 | relative viability (NCI-H3122; first compound 0.08 µM): 0.943 | relative viability (NCI-H3122; first compound 0.8 µM): 0.935 | relative viability (NCI-H3122; first compound 2.53 µM): 0.914 | relative viability (NCI-H358; first compound 0.08 µM): 0.735 | relative viability (NCI-H358; first compound 0.253 µM): 0.597 | relative viability (NCI-H358; first compound 0.8 µM): 0.404 | relative viability (NCI-H358; first compound 2.53 µM): 0.509 | relative viability (NCI-H661; first compound 0.08 µM): 1.05 | relative viability (NCI-H661; first compound 0.253 µM): 0.99 | relative viability (NCI-H661; first compound 0.8 µM): 1.01 | relative viability (NCI-H661; first compound 2.53 µM): 0.894 | relative viability (EPLC-272H; first compound 0.08 µM): 0.737 | relative viability (EPLC-272H; first compound 0.253 µM): 0.617 | relative viability (EPLC-272H; first compound 0.8 µM): 0.692 | relative viability (EPLC-272H; first compound 2.53 µM): 0.747
